Patent publication US9028856B2, “Synergistic pesticide compositions” (priority 2008, dated 2015)

Key:
[1] = test system: Argentine ant, Linepithema humile; test: Knockdown/mortality of ant workers under continuous exposure on treated glazed tile; conditions: glazed tile
In short: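 0.5% AI imidacloprid in acetone, alone or with 0.1, 1.0 or 5.0% additive (benzenepropanoic acid, oleic acid, methyl oleate, methyl linoleate, methyl palmitate or BHA), 1 ml dried overnight on glazed tile (~161 cm^2). Ten workers confined under continuous exposure, water from 3 h; knockdown/mortality scored at intervals and 24 h; ≥3 replicates.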

Aedes aegypti mosquito = test: USDA Petri Dish Method, 3 min exposure to treated glazed tile; format: in vivo; conditions: glazed tile, 3 min exposure
Description: (§1) Treatments were allowed to dry overnight. USDA Petri Dish Method was used as initial screening protocol. Twenty, 4-6 day old female Aedes aegypti mosquitoes were exposed to each treatment for 3 minutes and then moved to a clean untreated white paper index card. Treatments were replicated a minimum of three times. Mosquito knockdown was evaluated at various intervals through 7 hours after exposure. A small cotton ball soaked in sucrose solution was added on the screen top of the petri-dish as a drinking source. Mortality was evaluated at 24 hours after exposure.
(§2) MATERIALS AND METHODS: Solutions of resmethrin at 1 and 0.5% AI were prepared with and without adjuvant in acetone. […] USDA Petri Dish Method was used as initial screening protocol. Twenty, 4-6 day old female Aedes aegypti mosquitoes were exposed to each treatment for 3 minutes and then moved to a clean untreated white paper index card. Treatments were replicated a minimum of three times. Mosquito knockdown was evaluated at 3 minute intervals for the first 15 minutes and then at 5 minute intervals for the remainder of an hour. A small cotton ball soaked in sucrose solution was added on the screen top of the petri-dish as a drinking source. Mortality was evaluated at 24 hours after exposure.
as §1, with “6” for “7”
as §1, with “5 minute” for “various”, “for the first hour and then at 2, 4 and 6 hours.” for “through 7 hours after exposure.”
Treatments were allowed to dry overnight. USDA Petri Dish Method was used as initial screening protocol. Twenty, 4-6 day old female Aedes aegypti mosquitoes were exposed to each treatment for 3 minutes and then moved to a clean untreated white paper index card. Treatments were replicated a minimum of three times. Mosquito knockdown was evaluated at 3-5 minute intervals for the first hour. A small cotton ball soaked in sucrose solution was then added on the screen top of the petri-dish as a drinking source. Mortality was evaluated at 24 hours after exposure.
as §1, with “intervals through 2 hours after” for “intervals through 7 hours after”, “solution was then added on” for “solution was added on”
Treatments were allowed to dry overnight. USDA Petri Dish Method was used as initial screening protocol. Twenty, 4-6 day old female Aedes aegypti mosquitoes were exposed to each treatment for 3 minutes and then moved to a clean untreated white paper index card. Treatments were replicated a minimum of three times. Mosquito knockdown was evaluated at various hourly intervals. […]

[2] = test system: Odorous House ant, Tapinoma sessile; test: Knockdown/mortality of ant workers under continuous exposure on treated glazed tile; format: in vivo; conditions: glazed tile
From the text: Actual coverage was about 5″×5″ (or 161 cm2) for easy handling. Treatments were allowed to dry overnight. […] Treatments were replicated minimum three times.
(§3) Treatments were allowed to dry overnight. […] Treatments were replicated minimum three times.
(§4) Treatments were allowed to dry overnight. […] Treatments were replicated a minimum of three times.
Treatments were allowed to dry overnight. […] Treatments were replicated minimum of three times. […] The results are shown in FIG. 84 (No adjuvant alone treatment was performed).

[3] = test system: Red Imported Fire ant (RIFA), Solenopsis invicta; test: as above; format: in vivo; conditions: Table 52, fipronil/adjuvant in acetone, glazed tile
From the text: as §3, §4

[4] = test system: susceptible/normal German cockroach (Monheim strain), Blattella germanica; test: Knockdown/mortality of male cockroaches under continuous exposure on treated glazed tile; format: in vivo; conditions: glazed tile, Monheim strain
Description: Treatments were allowed to dry overnight. […] Treatments were replicated a minimum of three times. […]
Treatments were allowed to dry overnight. […] Treatments were replicated a minimum of three times. Cockroach knockdown/mortality was evaluated at 5 minute intervals for the first 60 minutes after exposure and then at 2, 18 and 24 hours.

[5] = test system: Culex quinquefasciatus mosquito; test: USDA Petri Dish Method, 3 min exposure to treated glazed tile (twenty 4-6 day old females); format: in vivo; conditions: for Average % Mortality after 1 hr / Average % Mortality after 3 hr / Average % Mortality after 5 hr / Average % Mortality after 24 hr: Table 77, carbaryl study, Culex quinquefasciatus; for Average % Mortality after 1 hr: glazed tile, 3 min exposure, adjuvant = Compound A 1% + Compound B 0.5%; for % KD and Mortality 3′ / % KD and Mortality 9′ / % KD and Mortality 15′ / % KD and Mortality 30′ / % KD and Mortality 1 h / % KD and Mortality 24 h: Table 73, in acetone, glazed tiles, 3′ exposure time; for % KD and Mortality 3′: 20 insects (three replicates); for % KD and Mortality 9′ / % KD and Mortality 15′ / % KD and Mortality 30′ / % KD and Mortality 1 h / % KD and Mortality 24 h: 20 insects
Description: as §2, with “Culex quinquefasciatus” for “Aedes aegypti”, “source after the 2 hour evaluation.” for “source.”
as §1, with “Culex” for “Aedes aegypti”, “3” for “7”
as §1, with “old female Culex quinquefasciatus mosquitoes were” for “old female Aedes aegypti mosquitoes were”, “intervals through 2 hours after” for “intervals through 7 hours after”, “solution was then added on” for “solution was added on”
as §1, with “Culex quinquefasciatus” for “Aedes aegypti”, “hourly intervals.” for “intervals through 7 hours after exposure.”, “source after 2 hours.” for “source.”

[6] = Table 53, fipronil/adjuvant in acetone
[7] = Table 36, thiamethoxam/adjuvant in acetone

**Q.** What does the source list for `N#Cc1nn(-c2c(Cl)cc(C(F)(F)F)cc2Cl)c(N)c1[S+]([O-])C(F)(F)F` (stereo not drawn) [Fipronil (.0001%)]?
**A.** Average % Mortality after 30 min ([1]; 30 min, Table 49, fipronil/adjuvant in acetone): 0%; Average % Mortality after 60 min ([1]; 60 min, Table 49, fipronil/adjuvant in acetone): 0%; Average % Mortality after 2 hr ([1]; 2 hr, Table 49, fipronil/adjuvant in acetone): 0%; Average % Mortality after 3 hr ([1]; Table 49, fipronil/adjuvant in acetone): 0%; Average % Mortality after 24 hr ([1]; 24 hr, Table 49, fipronil/adjuvant in acetone): 74%; Average % Knockdown & Mortality after 15 min (Aedes aegypti mosquito; 15 min, Table 48, fipronil/adjuvant in acetone): 0%; Average % Knockdown & Mortality after 30 min (Aedes aegypti mosquito; 30 min, Table 48, fipronil/adjuvant in acetone): 0%; Average % Knockdown & Mortality after 60 min (Aedes aegypti mosquito; 60 min, Table 48, fipronil/adjuvant in acetone): 0%; Average % Knockdown & Mortality after 4 hr (Aedes aegypti mosquito; 4 hr, Table 48, fipronil/adjuvant in acetone): 3%; Average % Knockdown & Mortality after 6 hr (Aedes aegypti mosquito; 6 hr, Table 48, fipronil/adjuvant in acetone): 3%; Average % Knockdown & Mortality after 24 hr (Aedes aegypti mosquito; Table 48, fipronil/adjuvant in acetone): 9%; Average % Mortality after 30 min ([2]; 30 min, Table 51, fipronil/adjuvant in acetone): 0%; Average % Mortality after 60 min ([2]; 60 min, Table 51, fipronil/adjuvant in acetone): 3%; Average % Mortality after 2 hr ([2]; 2 hr, Table 51, fipronil/adjuvant in acetone): 3%; Average % Mortality after 24 hr ([2]; 24 hr, Table 51, fipronil/adjuvant in acetone): 54%; Average % Mortality after 30 min ([3]; 30 min): 3%; Average % Mortality after 60 min ([3]; 60 min): 3%; Average % Mortality after 2 hr ([3]; 2 hr): 3%; Average % Mortality after 3 hr ([3]; 3 hr): 6%; Average % Mortality after 24 hr ([3]; 24 hr): 47%; Average % Knockdown & Mortality after 60 min [4, 6]: 0%; Average % Knockdown & Mortality after 3 hr [4, 6]: 7%; Average % Knockdown & Mortality after 5 hr ([4]; 5 hr, Table 53, fipronil/adjuvant in acetone): 7%; Average % Knockdown & Mortality after 24 hr [4, 6]: 7%

**Q.** With `CNC(=O)Oc1cccc2ccccc12` [carbaryl (2.5%)] as the molecule, how does the “Average % Mortality after 1 hr” value [5] read?
**A.** 0%

**Q.** And the “Average % Mortality after 3 hr” value [5]?
**A.** 0%

**Q.** And the “Average % Mortality after 5 hr” value [5]?
**A.** 2%

**Q.** What about the “Average % Mortality after 24 hr” value [5] of the same molecule?
**A.** 5%

**Q.** For `CNC(=O)Oc1cccc2ccccc12` [carbaryl (5%)], which “Average % Mortality after 1 hr” value [5] is on record?
**A.** 0%

**Q.** And the “Average % Mortality after 3 hr” value [5]?
**A.** 0%

**Q.** And the “Average % Mortality after 5 hr” value [5]?
**A.** 0%

**Q.** What about the “Average % Mortality after 24 hr” value [5] of the same molecule?
**A.** 0%

**Q.** For `CNC(=O)Oc1cccc2ccccc12` [carbaryl (0.1%)], which “Average % Mortality after 1 hr” value [5] is on record?
**A.** 0%

**Q.** What about the “Average % Mortality after 3 hr” value [5] of the same molecule?
**A.** 0%

**Q.** Which “% KD and Mortality 3′” value [5] does the source give for `CNC(=O)Oc1cccc2c1OC(C)(C)O2` [0.01% = 5 mg Bendiocarb/m^2] here?
**A.** 0%

**Q.** What about the “% KD and Mortality 9′” value [5] of the same molecule?
**A.** 0%

**Q.** And the “% KD and Mortality 15′” value [5]?
**A.** 0%

**Q.** What about the “% KD and Mortality 30′” value [5] of the same molecule?
**A.** 0%

**Q.** What about the “% KD and Mortality 1 h” value [5] of the same molecule?
**A.** 0%

**Q.** And the “% KD and Mortality 24 h” value [5]?
**A.** 0%

**Q.** `CNC(=O)Oc1cccc2c1OC(C)(C)O2` [0.1% = 50 mg Bendiocarb/m^2] was tested. Which “% KD and Mortality 3′” value [5] did it give?
**A.** 0%

**Q.** What about the “% KD and Mortality 9′” value [5] of the same molecule?
**A.** 0%

**Q.** What about the “% KD and Mortality 15′” value [5] of the same molecule?
**A.** 0%

**Q.** And the “% KD and Mortality 30′” value [5]?
**A.** 15%

**Q.** And the “% KD and Mortality 1 h” value [5]?
**A.** 37%

**Q.** And the “% KD and Mortality 24 h” value [5]?
**A.** 81%

**Q.** Which results are given for `CN1COCN(Cc2cnc(Cl)s2)/C1=N\[N+](=O)[O-]` [Thiamethoxam (0.1%)]?
**A.** Average % Mortality after 15 min ([1]; 15 min, Table 34, thiamethoxam/adjuvant in acetone): 12%; Average % Mortality after 3 hr ([1]; Table 34, thiamethoxam/adjuvant in acetone): 46%; Average % Mortality after 21 hr ([1]; 21 hr, Table 34, thiamethoxam/adjuvant in acetone): 100%; Average % Knockdown & Mortality after 2 hr (Aedes aegypti mosquito; 2 hr, Table 33, thiamethoxam/adjuvant in acetone): 0%; Average % Knockdown & Mortality after 3 hr (Aedes aegypti mosquito; 3 hr, Table 33, thiamethoxam/adjuvant in acetone): 0%; Average % Knockdown & Mortality after 7 hr (Aedes aegypti mosquito; 7 hr, Table 33, thiamethoxam/adjuvant in acetone): 0%; Average % Knockdown & Mortality after 24 hr (Aedes aegypti mosquito; Table 33, thiamethoxam/adjuvant in acetone): 0%; Average % Knockdown & Mortality after 15 min ([2]; 15 min, Table 35, thiamethoxam/adjuvant in acetone): 0%; Average % Knockdown & Mortality after 30 min ([2]; 30 min, Table 35, thiamethoxam/adjuvant in acetone): 0%; Average % Knockdown & Mortality after 60 min ([2]; 60 min, Table 35, thiamethoxam/adjuvant in acetone): 0%; Average % Knockdown & Mortality after 2 hr ([2]; 2 hr, Table 35, thiamethoxam/adjuvant in acetone): 3%; Average % Knockdown & Mortality after 20 hr ([2]; 20 hr, Table 35, thiamethoxam/adjuvant in acetone): 33%; Average % Knockdown & Mortality after 30 min ([4]; 30 min, Table 36, thiamethoxam/adjuvant in acetone): 7%; Average % Knockdown & Mortality after 60 min [4, 7]: 73%; Average % Knockdown & Mortality after 90 min ([4]; 90 min, Table 36, thiamethoxam/adjuvant in acetone): 93%; Average % Knockdown & Mortality after 3 hr [4, 7]: 100%; Average % Knockdown & Mortality after 24 hr [4, 7]: 100%
